In article PMC10954736, “The evolutionary origin of naturally occurring intermolecular Diels-Alderases from Morus alba” (Nature Communications, 2024):
Blank lines part the entries; values can stand above or below the molecule they belong to.

Tests used:
MaDA1 = biological target: T1, MaDA1 (Morus alba, UniProt A0AAN0NNN7); experiment: UPLC product assay; assay type: biochemical; settings: oxidative cyclisation to moracin D; 20 mM Tris-HCl pH 8.0, 50 °C
T1 construct: N-terminal 6xHis-SUMO tag, Sf9 baculovirus; tag removed by TEV protease for crystallisation; dimer in crystal
T1 sequence (A0AAN0NNN7 24-539 limits assumed): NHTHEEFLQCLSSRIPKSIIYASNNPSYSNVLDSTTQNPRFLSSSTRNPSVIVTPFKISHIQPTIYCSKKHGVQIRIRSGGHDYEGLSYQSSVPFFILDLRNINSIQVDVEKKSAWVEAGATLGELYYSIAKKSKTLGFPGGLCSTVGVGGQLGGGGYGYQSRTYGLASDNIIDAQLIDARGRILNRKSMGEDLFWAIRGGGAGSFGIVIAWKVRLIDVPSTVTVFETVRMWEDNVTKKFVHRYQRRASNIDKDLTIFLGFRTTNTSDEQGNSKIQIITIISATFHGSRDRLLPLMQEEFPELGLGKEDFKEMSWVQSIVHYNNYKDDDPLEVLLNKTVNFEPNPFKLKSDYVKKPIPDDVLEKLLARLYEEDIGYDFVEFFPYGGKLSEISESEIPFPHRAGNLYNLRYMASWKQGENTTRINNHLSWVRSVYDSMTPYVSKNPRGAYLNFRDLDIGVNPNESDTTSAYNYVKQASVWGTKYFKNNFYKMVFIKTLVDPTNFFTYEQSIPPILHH

ancDADS = biological target: T2, ancDADS; experiment: Lineweaver-Burk, UPLC product quantification; assay type: biochemical; settings: competitive against moracin C (20–150 μM); 20 mM Tris-HCl pH 8.0; compound is also an alternative substrate
T2 construct: N-terminal 6xHis-SUMO tag, Sf9 baculovirus

[1] = biological target: Morus alba Diels-Alderase MaDA1 (Morus alba); experiment: crystal structure; untagged MaDA1 at about 10 mg/mL, sitting drop vapor diffusion at 18 °C, 0.1 M Bis-Tris pH 5.5, 25% PEG3350

Molecule: CC(C)=CCc1c(O)cc(-c2cc3ccc(O)cc3o2)cc1O [compound 1, moracin C]
UPLC product assay (MaDA1): two DAs (MaDA1 and MaDA4) and two DSs (MaDS1 and MaDS6) exhibit functional promiscuity

Ki (ancDADS): 7.34 µM
Molecule: CC(C)=CCc1c(O)ccc(C(=O)/C=C/c2ccc(O)cc2O)c1O [compound 4, morachalcone A]

stoichiometry N [1]: 2
Molecule: Morus alba Diels-Alderase MaDA1 (enzyme)
